Where “and” joins values, the source holds several entries; their conditions need not be identical. Identical values can stand only once.
Experiments:
NG4TL4 cells = test: Cellular uptake test (ratio of cell to medium); format: cell-based; settings: 1, 2, 4 and 8 h
Procedure: (§1) 2×10^6 cells was inoculated in a 15 cm^2 dish containing 14 mL medium supplemented with 10% FBS. […] At specified time points (using I-131 tracer at 1, 2, 4 and 8_h), the cells on the dish was harvested by using a cell scraper. Then, a cell suspension was transferred to a 15 mL centrifuge tube and centrifuged (at 3500 rpm) for 2 min. After centrifugation, 100 μL centrifugate was collected to a preweighed counting tube and directly poured into a maintained medium. Cell pellets were frozen with dry ice, and further collected into another weighed counting tube. […] Accumulation of activity of radioactive trancer in cell in vitro is represented by a radio of cell to medium:
(§2) Uptake experimental results of the two radioactive nucleoside analogues [^131I]IUdR and [^131I]ICdR in cells are as shown in FIGS. 4((a), (b)).

LL/2 cells = test: Cellular uptake test (ratio of cell to medium); format: cell-based; settings: 1, 2, 4 and 8 h
Procedure: as §1, §2

[1] = mouse, in vivo, iv
[2] = Analysis of metabolites in blood and urine through NP-TLC; format: in vivo, FVB/N mice; settings: NP-TLC EA/EtOH = 5/1
Procedure: Blood samples were obtained by heart puncture, and then centrifuged at 13,000 rpm for 10 min. Then, the supernatant (about 300 μL) was placed in a 1.5 mL centrifuge tube containing equal amount of ethanol, and then centrifuged again to obtain the serum.

NG4TL4 sarcoma cells = test: Study on incorporation in DNA; format: cell-based; settings: 1 μCi/mL medium, 0.5-8 h
Procedure: DNA was extracted with Genomic DNA Mini Kit (Geneaid Biotech Ltd., Taiwan). NG4TL4 cell lines were harvested and inoculated into a petri dish at 2×10^6. […] At 0.5, 1, 2, 4 and 8 h after incubation, the medium was removed, and the cells was washed two times with ice-cold PBS, and then sheared with trypsin and collected to a centrifuge tube for centrifugation (at […] for 1 min). The supernatant was removed, while 50 μL remaining buffer was left to keep the cells in suspension. 300 μL cell lysis buffer was added to the sample and uniformly mixed, the cells was cultured in a water bath at 60° C. for a sereral minutes till the solution was transparent (the sample was inversed once every 3 min). 2 μL RNAse (25 mg/mL) was added to the sample and uniformly mixed, after 5-min incubation at room temperature, 100 μL protein removal buffer was added to the sample, uniformly mixed immediately, and centrifuged for 3 min at full speed (14000 rpm) after 5-min incubation on ice. The resulting solution was transferred as a suspension to another tube, and isopropanol was added and thoroughly mixed. […] In the test, DNA purity was determined at absorption wavelengths of 260 nm and 280 nm, and the ratio of absorbances (OD260/OD280) was about 1.7.

NG4TL4-WT tumor = test: Biodistribution study in tumor-bearing mice; format: in vivo, FVB/N mice; settings: for Biodistribution Blood / Biodistribution Bone / Biodistribution Brain / Biodistribution Heart / Biodistribution Kidney / Biodistribution Large Intestine / Biodistribution Liver / Biodistribution Lung / Biodistribution Marrow / Biodistribution Muscle / Biodistribution Pancreas / Biodistribution Small Intestine / Biodistribution Spleen / Biodistribution Stomach / Biodistribution Tumor / T/B (aggregation ratio of tumor to blood) / T/M (tumor-muscle aggregation ratio): 80~90 μCi tail vein, FVB/N mice with NG4TL4-WT tumor
Description: […] Tumor and 13 other tissures (blood, heart, lung, liver, stomach, small intestine, large intestine, spleen, pancreas, kidney, bone, marrow, and muscle) were removed, rinsed, weighed, and determined for radioactivity with a γ scintilation counter. Uptake of the radioactive trancers in the tissues (counts per min) was calibrated against decay, normalizedto sample weight, and expressed as percentages of injected dosage per gram of tissue (% ID/g) and aggregation ratio of tumor to blood.

[3] = 0.25 h after ^131I-ICdR at tail vein
[4] = 1 h after ^131I-ICdR at tail vein
[5] = 2 h after ^131I-ICdR at tail vein

- CL (total body clearance) [1]: 3.90 ± 0.59 mL/h
- ^131I-ICdR (%) in Blood [2, 3]: 63.10 ± 1.17%
- ^131I-ICdR (%) in Urine [2, 3]: 56.49 ± 6.58%
- ^131I-IUdR (%) in Blood [2, 3]: 18.62 ± 2.25%
- ^131I-IUdR (%) in Urine [2, 3]: 3.19 ± 1.03%
- ^131I-I^- (%) in Blood [2, 3]: 18.28 ± 3.39%
- ^131I-I^- (%) in Urine [2, 3]: 40.32 ± 6.18%
- ^131I-compound (unknown) (%) in Blood [2, 3]: 0%
- ^131I-compound (unknown) (%) in Urine [2, 3]: 0%
- ^131I-ICdR (%) in Blood [2, 4]: 72.2% and 72.16 ± 3.66%
- ^131I-ICdR (%) in Urine [2, 4]: 71.0% and 71 + 0.26%
- ^131I-IUdR (%) in Blood [2, 4]: 0%
- ^131I-IUdR (%) in Urine [2, 4]: 0%
- ^131I-I^- (%) in Blood [2, 4]: 14.11 ± 6.15%
- ^131I-I^- (%) in Urine [2, 4]: 26.54 ± 0.34%
- ^131I-compound (unknown) (%) in Blood [2, 4]: 13.73 ± 1.38%
- ^131I-compound (unknown) (%) in Urine [2, 4]: 2.46 ± 0.08%
- ^131I-ICdR (%) in Blood [2, 5]: 67.77 ± 7.33%
- ^131I-ICdR (%) in Urine [2, 5]: 81.1 ± 8.86%
- ^131I-IUdR (%) in Blood [2, 5]: 0%
- ^131I-IUdR (%) in Urine [2, 5]: 0%
- ^131I-I^- (%) in Blood [2, 5]: 19 + 5.90%
- ^131I-I^- (%) in Urine [2, 5]: 15.37 ± 7.67%
- ^131I-compound (unknown) (%) in Blood [2, 5]: 13.23 ± 1.97%
- ^131I-compound (unknown) (%) in Urine [2, 5]: 3.53 ± 1.96%
- Biodistribution Blood (NG4TL4-WT tumor; 1 h): 6.21 ± 1.11 % ID/g
- Biodistribution Bone (NG4TL4-WT tumor; 1 h): 0.96 ± 0.13 % ID/g
- Biodistribution Brain (NG4TL4-WT tumor; 1 h): 0.25 ± 0.03 % ID/g
- Biodistribution Heart (NG4TL4-WT tumor; 1 h): 1.45 + 0.14 % ID/g
- Biodistribution Kidney (NG4TL4-WT tumor; 1 h): 3.96 ± 0.39 % ID/g
- Biodistribution Large Intestine (NG4TL4-WT tumor; 1 h): 2.92 ± 0.18 % ID/g
- Biodistribution Liver (NG4TL4-WT tumor; 1 h): 2.05 ± 0.20 % ID/g
- Biodistribution Lung (NG4TL4-WT tumor; 1 h): 3.52 ± 0.48 % ID/g
- Biodistribution Marrow (NG4TL4-WT tumor; 1 h): 3.29 ± 0.08 % ID/g
- Biodistribution Muscle (NG4TL4-WT tumor; 1 h): 0.85 ± 0.04 % ID/g
- Biodistribution Pancreas (NG4TL4-WT tumor; 1 h): 2.81 ± 0.42 % ID/g
- Biodistribution Small Intestine (NG4TL4-WT tumor; 1 h): 4.79 ± 0.41 % ID/g
- Biodistribution Spleen (NG4TL4-WT tumor; 1 h): 4.03 ± 0.55 % ID/g
- Biodistribution Stomach (NG4TL4-WT tumor; 1 h): 17.07 + % ID/g
- Biodistribution Tumor (NG4TL4-WT tumor; 1 h): 3.46 ± 0.07 % ID/g
- T/B (aggregation ratio of tumor to blood) (NG4TL4-WT tumor; 1 h): 0.56
- T/M (tumor-muscle aggregation ratio) (NG4TL4-WT tumor; 1 h): 4.07
- Biodistribution Blood (NG4TL4-WT tumor; 2 h): 3.76 ± 0.13 % ID/g
- Biodistribution Bone (NG4TL4-WT tumor; 2 h): 0.71 ± 0.19 % ID/g
- Biodistribution Brain (NG4TL4-WT tumor; 2 h): 0.15 ± 0.03 % ID/g
- Biodistribution Heart (NG4TL4-WT tumor; 2 h): 1.14 + 0.01 % ID/g
- Biodistribution Kidney (NG4TL4-WT tumor; 2 h): 2.36 ± 0.06 % ID/g
- Biodistribution Large Intestine (NG4TL4-WT tumor; 2 h): 2.54 ± 0.33 % ID/g
- Biodistribution Liver (NG4TL4-WT tumor; 2 h): 1.43 ± 0.09 % ID/g
- Biodistribution Lung (NG4TL4-WT tumor; 2 h): 2.72 ± 0.17 % ID/g
- Biodistribution Marrow (NG4TL4-WT tumor; 2 h): 3.58 ± 1.12 % ID/g
- Biodistribution Muscle (NG4TL4-WT tumor; 2 h): 0.61 ± 0.05 % ID/g
- Biodistribution Pancreas (NG4TL4-WT tumor; 2 h): 2.08 ± 0.08 % ID/g
- Biodistribution Small Intestine (NG4TL4-WT tumor; 2 h): 4.79 ± 0.45 % ID/g
- Biodistribution Spleen (NG4TL4-WT tumor; 2 h): 3.07 ± 0.09 % ID/g
- Biodistribution Stomach (NG4TL4-WT tumor; 2 h): 14.99 ± 4.04 % ID/g
- Biodistribution Tumor (NG4TL4-WT tumor; 2 h): 3.78 ± 0.07 % ID/g
- T/B (aggregation ratio of tumor to blood) (NG4TL4-WT tumor; 2 h): 1.00
- T/M (tumor-muscle aggregation ratio) (NG4TL4-WT tumor; 2 h): 6.16
- Biodistribution Blood (NG4TL4-WT tumor; 4 h): 3.40 ± 0.15 % ID/g
- Biodistribution Bone (NG4TL4-WT tumor; 4 h): 0.77 ± 0.07 % ID/g
- Biodistribution Brain (NG4TL4-WT tumor; 4 h): 0.12 ± 0.02 % ID/g
- Biodistribution Heart (NG4TL4-WT tumor; 4 h): 0.84 + 0.07 % ID/g
- Biodistribution Kidney (NG4TL4-WT tumor; 4 h): 2.07 ± 0.10 % ID/g
- Biodistribution Large Intestine (NG4TL4-WT tumor; 4 h): 2.88 ± 0.21 % ID/g
- Biodistribution Liver (NG4TL4-WT tumor; 4 h): 0.85 ± 0.01 % ID/g
- Biodistribution Lung (NG4TL4-WT tumor; 4 h): 2.28 ± 0.12 % ID/g
- Biodistribution Marrow (NG4TL4-WT tumor; 4 h): 3.82 ± 0.54 % ID/g
- Biodistribution Muscle (NG4TL4-WT tumor; 4 h): 0.51 ± 0.04 % ID/g
- Biodistribution Pancreas (NG4TL4-WT tumor; 4 h): 2.09 ± 0.13 % ID/g
- Biodistribution Small Intestine (NG4TL4-WT tumor; 4 h): 5.27 ± 0.39 % ID/g
- Biodistribution Spleen (NG4TL4-WT tumor; 4 h): 2.88 ± 0.13 % ID/g
- Biodistribution Stomach (NG4TL4-WT tumor; 4 h): 17.68 ± 0.74 % ID/g
- Biodistribution Tumor (NG4TL4-WT tumor; 4 h): 4.85 ± 0.17 % ID/g
- T/B (aggregation ratio of tumor to blood) (NG4TL4-WT tumor; 4 h): 1.43
- T/M (tumor-muscle aggregation ratio) (NG4TL4-WT tumor; 4 h): 9.59
- Biodistribution Blood (NG4TL4-WT tumor; 8 h): 0.77 ± 0.10 % ID/g
- Biodistribution Bone (NG4TL4-WT tumor; 8 h): 0.11 ± 0.02 % ID/g
- Biodistribution Brain (NG4TL4-WT tumor; 8 h): 0.01 ± 0.00 % ID/g
- Biodistribution Heart (NG4TL4-WT tumor; 8 h): 0.19 + 0.03 % ID/g
- Biodistribution Kidney (NG4TL4-WT tumor; 8 h): 0.75 ± 0.02 % ID/g
- Biodistribution Large Intestine (NG4TL4-WT tumor; 8 h): 1.33 ± 0.06 % ID/g
- Biodistribution Liver (NG4TL4-WT tumor; 8 h): 0.38 ± 0.02 % ID/g
- Biodistribution Lung (NG4TL4-WT tumor; 8 h): 0.69 ± 0.16 % ID/g
- Biodistribution Marrow (NG4TL4-WT tumor; 8 h): 2.31 ± 0.10 % ID/g
- Biodistribution Muscle (NG4TL4-WT tumor; 8 h): 0.09 ± 0.01 % ID/g
- Biodistribution Pancreas (NG4TL4-WT tumor; 8 h): 0.38 ± 0.05 % ID/g
- Biodistribution Small Intestine (NG4TL4-WT tumor; 8 h): 2.06 ± 0.13 % ID/g
- Biodistribution Spleen (NG4TL4-WT tumor; 8 h): 2.77 ± 0.09 % ID/g
- Biodistribution Stomach (NG4TL4-WT tumor; 8 h): 2.85 ± 0.61 % ID/g
- Biodistribution Tumor (NG4TL4-WT tumor; 8 h): 2.32 ± 0.27 % ID/g
- T/B (aggregation ratio of tumor to blood) (NG4TL4-WT tumor; 8 h): 3.02
- T/M (tumor-muscle aggregation ratio) (NG4TL4-WT tumor; 8 h): 25.77
- excretion of drug and metabolites (NG4TL4-WT tumor; mice): mainly through the urinary system
Structure (SMILES): Nc1nc(=O)n([C@H]2C[C@H](O)[C@@H](CO)O2)cc1[131I] [^131I-ICdR]
- uptake value over time (NG4TL4 cells): continuously increased with time
- uptake value over time (LL/2 cells): continuously increased with time
- incorporation into cells / radioactive accumulation in DNA with time (NG4TL4 sarcoma cells): linearly incorporated
- accumulation in organs (biodistribution and imaging) (NG4TL4-WT tumor; tumor-bearing mice): obviously accumulated in organs that rapidly proliferates

Source: US20140221639A1, “RADIOLABELED NUCLEOSIDE ANALOGUE, AND PREPARATION METHOD AND USE THEREOF” (Institute of Nuclear Energy Research Atomic Energy Council, …, priority 2011, published 2014)
